{"source": "ChEMBL document CHEMBL1130902", "about": "“Novel angucycline compound with both antigastrin- and gastric mucosal protective-activities” (1998)", "assay_type_in_all_cases": "functional", "key": {"Rattus norvegicus [1]": {"test_system": "Rattus norvegicus", "experiment": "Percentage dose required to prevent lesion formation in gastric mucosa of unanesthetized rats upon intraperitoneal administration of 10 mg/kg dose in the HCl/ethanol-induced lesion model", "conditions": "ip"}, "Rattus norvegicus [2]": {"test_system": "Rattus norvegicus", "experiment": "Dose required to prevent lesion formation in gastric mucosa of unanesthetized rats upon subcutaneous administration."}, "Rattus norvegicus [3]": {"test_system": "Rattus norvegicus", "experiment": "Percentage dose required to prevent lesion formation in gastric mucosa of unanesthetized rats upon intraperitoneal administration of 1 mg/kg dose in the HCl/ethanol-induced lesion model", "conditions": "ip"}, "Rattus norvegicus [4]": {"test_system": "Rattus norvegicus", "experiment": "Percentage dose required to prevent lesion formation in gastric mucosa of unanesthetized rats upon intraperitoneal administration of 3 mg/kg dose in the HCl/ethanol-induced lesion model", "conditions": "ip"}, "Rattus norvegicus [5]": {"test_system": "Rattus norvegicus", "experiment": "Percentage dose required to prevent lesion formation in gastric mucosa of unanesthetized rats upon intraperitoneal administration 30 min prior to an oral dose of HCl/ethanol."}, "Rattus norvegicus [6]": {"test_system": "Rattus norvegicus", "experiment": "Percent inhibition against pentagastrin-stimulated acid secretion upon intraperitoneal administration of 10 mg/kg dose to urethane anesthetized rats.", "conditions": "ip"}}}
{"smiles": "COc1ccc2c(c1)c(CC(=O)O)c(C)n2C(=O)c1ccc(Cl)cc1", "note": "[INDOMETHACIN]", "values": [{"measurement": "inhibition in vivo at 10 mg/kg", "setting": "Rattus norvegicus [1]", "result": 72.8, "unit": "%"}, {"measurement": "Dose", "setting": "Rattus norvegicus [2]", "result": 25, "unit": "mg/kg"}, {"measurement": "inhibition in vivo at 1 mg/kg", "setting": "Rattus norvegicus [3]", "result": 57, "unit": "%"}, {"measurement": "inhibition in vivo at 3 mg/kg", "setting": "Rattus norvegicus [4]", "result": 64.9, "unit": "%"}]}
{"smiles": "CO[C@@H]1C[C@H](O[C@@H]2C=C(C)C[C@@]3(O)[C@H](OC(C)=O)[C@H](O)C4=C(C(=O)c5ccc([C@H]6C[C@@H](O[C@H]7C[C@](C)(O)[C@H](O[C@H]8CC[C@H](NC(N)=O)[C@@H](C)O8)[C@@H](C)O7)[C@H](O)[C@@H](C)O6)c(O)c5C4=O)[C@@]23O)O[C@@H](C)[C@H]1O", "note": "[COMPOUND P371 A]", "values": [{"measurement": "inhibition in vivo at 10 mg/kg", "setting": "Rattus norvegicus [1]", "result": 83.6, "unit": "%"}, {"measurement": "inhibition in vivo at 1 mg/kg", "setting": "Rattus norvegicus [3]", "result": 52.6, "unit": "%"}, {"measurement": "% dose", "setting": "Rattus norvegicus [5]", "result": 60, "unit": "%"}, {"measurement": "inhibition in vivo at 10 mg/kg", "setting": "Rattus norvegicus [6]", "result": 61, "unit": "%"}, {"measurement": "inhibition in vivo at 3 mg/kg", "setting": "Rattus norvegicus [4]", "result": 81.6, "unit": "%"}]}
